Read-outs that look alike come from different tables or passages of the source.
How the values were obtained:
[1] = Partitioning coefficient of RB, 1-octanol/0.9% saline, effect of pH
Description: The partition coefficient of RB was assessed over a range of pH values. The experiments were conducted by titrating RB solutions, measuring pH, then placing aliquots of the solutions into vials containing both organic (1-octanol) and aqueous (0.9% saline) phases. After mixing, the agents were allowed to partition for approximately 1 day. Based on absorption measurements (at the same wavelengths used in Experiment 1), the percentage of agent in each phase, the Kp and LogD (log of Kp) was reported.
Experiment 1 was conducted using a stock solution of 0.42 mg/mL RB, whereas Experiment 3 was conducted using a concentration of 0.08 mg/mL.

[2] = Critical solubility of Rose Bengal in saline (cloudiness, absorbance at 1000 nm); format: physicochemical
Description: Solutions of RB at different concentrations were prepared at different sodium chloride concentrations. Saline 0.9% USP sodium chloride solution from Hospira, having a pH of 5.5, was used as a stock solution. Solutions having different sodium chloride concentrations were obtained by the addition of calculated amounts of sodium chloride.
The prepared RB/sodium chloride solutions were shaken for 1 hour and absorbance measurements were taken at 1000 nm to determine cloudiness. 1000 nm was chosen as this is in the near infra red where RB has negligible absorbance. Solution cloudiness was difficult to detect visually due to the very dark red color.
The following solutions were evaluated: • 1. 20% RB in saline concentrations of 1.0%, 1.5%, 1.6%, 1.7%, 1.8%, 1.9%, 2.0%, 2.5%, 2.6%, 2.7% and 2.9%; • 2. 15% RB in saline concentrations of […]; • 3. 10% RB in saline concentrations of 2.0%, 2.5%, 3.0% and 3.2%; and • 4. 40%, 45%, 50%, 55% and 60% solutions of RB in 0.9% saline.

[3] = system: A375 human melanoma xenograft tumors; details: for #CR + #PR/SD (%): number (percent); for MST ± SEM (mean survival time to 2.0 g tumor): single injection
Description: The effects of a single IL injection of RB into A375 human melanoma xenograft tumors growing in nude mice were evaluated.
Chemoablation studies were conducted using female nu/nu mice (Harlan), 6-9 weeks of age and approximately 20 g at study Day 1.
Each mouse in Chemoablation study groups received a single subcutaneous implantation of the A375 melanoma tumor line. This consisted of implantation of either (1) a 1 mm^3 fragment of tissue in the flank or (2) subcutaneous injection of 100 μL of an A375 cell suspension into the flank. Treatment was initiated when the implanted tumor reached a size of approximately 70 mg (where tumor weight, in mg, was estimated using the formula (w^2×l)/2 in which w is width, and l is length in mm of the tumor).
RB (Aldrich product No. W1843) in isotonic saline; concentrations of 0.1% RB, 1%, RB, 1%, RB, 6% RB and 10% RB (w/v) was studied. Saline was used for the injection control group.
Treatment Plan: Mice were divided into treatment groups on study Day 1. RB treatment groups received a single IL injection of 0.1 mL RB in saline; the injection control group received a single IL injection of 0.1 mL saline. Growth control and sham treatment groups received no injection. All dosing was performed on Study Day 1. Follow up examination of the mice was conducted at regular intervals, and the test terminated on either Study day 65 or Study Day 85.
Each animal was euthanized when its A375 neoplasm reached a size of 2.0 g.
Treatment was assessed for occurrence of complete tumor regression (CR), partial tumor regression (PR) or stable disease (SD). The duration of CR, PR, or SD response was recorded throughout each study.
The Log-Rank test was used to determine the statistical significance of any difference in survival experienced between treatment and control groups. […] SigmaStat 3.0 (SPSS Inc) was used for all statistical analysis. Graphs were prepared using sigmaStat 3.0 or sigma Plot 2000 (SPSS Inc.) ver 6.00.

[4] = system: MCF-7 [ER+] tumors; assay: Tumor response to IL 10% RB in saline, report 020110.01B; format: in vivo, BALB/c Nude Mice; details: 10% RB IL 25-50 μL/tumor Qd × 1; within 21 days; 4/group

Structure (SMILES): O=C([O-])c1c(Cl)c(Cl)c(Cl)c(Cl)c1-c1c2cc(I)c(=O)c(I)c-2oc2c(I)c([O-])c(I)cc12.[Na+].[Na+] [RB, 4,5,6,7-Tetrachloro-2′,4′,5′,7′-tetraiodofluorescein]
- solubility [1]: 195 µg/mL
- partitioning coefficient versus pH ([1]; below a pH of about 4.4): rapidly increases
- solubility of RB in the aqueous phase ([1]; below a pH of about 4.4 (lactone form)): almost complete insolubility
- partitioning coefficient versus pH ([1]; pH range about 4 to about 10, 1-octanol/0.9% saline): consistent
- solution stability ([2]; RB solutions within the therapeutic amounts): stable
- RB concentration that can be achieved ([2]; in 0.9% saline): up to 45%
- tumor growth response ([3]; 0.1% RB (Group C)): qualitatively and statistically equivalent to the control groups
- #CR ([3]; 0.1% RB, 5 mg/kg, IL, N=5): 0
- #PR/SD ([3]; 0.1% RB, 5 mg/kg, IL, N=5): 0
- #CR + #PR/SD (%) ([3]; 0.1% RB, 5 mg/kg, IL, N=5): 0 (0)
- MST ± SEM (mean survival time to 2.0 g tumor) ([3]; 0.1% RB, 5 mg/kg, IL, N=5): 27.0 ± 3.0 (5) days
- clinical response of tumors ([3]; 1% RB and higher, large fraction of tumors): localized tumor necrosis with rapid eschar formation
- #CR ([3]; 1% RB, 50 mg/kg, IL, N=12): 1
- #PR/SD ([3]; 1% RB, 50 mg/kg, IL, N=12): 1
- #CR + #PR/SD (%) ([3]; 1% RB, 50 mg/kg, IL, N=12): 2 (17)
- MST ± SEM (mean survival time to 2.0 g tumor) ([3]; 1% RB, 50 mg/kg, IL, N=12): 33.1 ± 4.5 (10) days
- composite response (damage+necrosis/2) and mean severity of necrosis of tumor tissue ([3]; 1%, 3% and 6% RB treatment groups): elevated
- #CR ([3]; 3% RB, 150 mg/kg, IL, N=17): 3
- #PR/SD ([3]; 3% RB, 150 mg/kg, IL, N=17): 3
- #CR + #PR/SD (%) ([3]; 3% RB, 150 mg/kg, IL, N=17): 6 (35)
- MST ± SEM (mean survival time to 2.0 g tumor) ([3]; 3% RB, 150 mg/kg, IL, N=17): 50.0 ± 7.0 (11) days
- survival versus growth controls ([3]; 6% RB (N=6), increased survival): not statistically different
- #CR ([3]; 6% RB, 300 mg/kg, IL, N=6): 1
- #PR/SD ([3]; 6% RB, 300 mg/kg, IL, N=6): 0
- #CR + #PR/SD (%) ([3]; 6% RB, 300 mg/kg, IL, N=6): 1 (17)
- MST ± SEM (mean survival time to 2.0 g tumor) ([3]; 6% RB, 300 mg/kg, IL, N=6): 35.4 ± 6.6 (5) days
- #CR ([3]; 10% RB, 500 mg/kg, IL, N=5): 1
- #PR/SD ([3]; 10% RB, 500 mg/kg, IL, N=5): 1
- #CR + #PR/SD (%) ([3]; 10% RB, 500 mg/kg, IL, N=5): 2 (40)
- MST ± SEM (mean survival time to 2.0 g tumor) ([3]; 10% RB, 500 mg/kg, IL, N=5): 52.2 ± 14.9 (3) days
- systemic toxicity ([3]; all tumour treatments, IL): well-tolerated
- tolerability of intralesional injection ([3]; concentrations up to 10% (500 mg/kg)): well tolerated by all animals
- residual RB in perilesional tissue ([3]; terminal sacrifice): no residual RB
- histology of tumor and peritumor tissue ([3]; terminal sacrifice, no dose-related trends): minimal perilesional inflammation and damage
- tumors completely ablated [4]: [ER+] (4/4), MCF-7 [ER−] (4/4),
